Measured values as given in US10968214B2, “KRas G12C inhibitors” (Eli Lilly and Company, priority 2018, dated 2021).
Where two headings read alike, the source gives them in different places.

Assays:
H358 = experiment: Combination 4 day growth assay (Cell TiterGlo), H358; type: cell-based; conditions: Homo sapiens, NCI-H358, 96 h, single treatment, read-out: Absolute IC50
Procedure: Cell lines for this study are obtained from ATCC and grown under ATCC recommended conditions, except for LXFA-983L, which is obtained from Oncotest/Charles Rivers Laboratories, Wilmington, Mass. and D122-96, which is obtained from L. Eisenbach (Weizman Institute of Science, Rehovot, Israel)—both grown under recommended conditions. […] The proliferation assay is performed as a 4 day growth assay using Cell TiterGlo® as the readout. Briefly, cells are plated in 96-well cell culture plates and allowed to adhere overnight at 37° C. The following day, cells are treated with compounds, either single treatments or combination treatments. First, the testing compounds are serially diluted in DMSO, followed by dilution into media as a 5× concentration with 1% DMSO, and finally added to cells in media to dilute to 1×. The cells are incubated at 37° C. for 4 more days. At the end of the incubation period, Cell TiterGlo® reagent is mixed and added to the wells. After 10 minutes, the luminescence is read by a Perkin Elmer Envision instrument. Absolute IC50 values generated by a 4-parameter logistics model for the single and combination treatments are generated, followed by combination indexes for each combination treatment and cell line. The combination IC50 values are adjusted based on the total concentration of each compound when added together. […] The combination index (CI) measures the degree to which the potency of a combination therapy differs from the expected-if-additive potency and is based on the Loewe definition of additivity.
[formula] Where • CAy and CBy are the concentrations of therapies A and B that produce an effect, y, when given in combination • ICAy and ICBy are the concentrations of A and B that produce an effect, y, when given individually The biological interpretation of the combination index is as follows: synergistic if the combination index <0.5, additive if the combination index is between 0.5 and 2, and antagonistic if the combination index is >2.

A549 = experiment: CellTiterGlo Cell Proliferation Assay, A549; type: cell-based; conditions: KRas G12S, lung, 96 hr; for IC50: Homo sapiens
Procedure: A panel of tumor cell lines harboring KRas G12C or other KRas mutations are collected (Table 6). All cell lines are from ATCC or other sources indicated.
Typically cells are cultured in RPMI1640 or Dulbecco's modified Eagle's medium (DMEM, GIBCO) supplemented with 10% FBS (GIBCO, Invitrogen). For 2D culture cells (4×10^3/well) maintained in growth medium described above, are plated onto 96 well tissue culture plates Corning® Cat. 3603) a day before the treatment. For 3D culture 8000 cells/well are seeded onto 96 well ultra-low attachment tissue culture plates (Corning, #3474). The cells are treated compound for 96 hr, and then are analyzed for viability using the CellTiterGlo® Luminescent Cell Viability Assay® (Promega #G7572 for 2D and Promega #G9683 for 3D cultures) according to manufacturer's instructions and an EnVision™ plate reader. Nonlinear regression and sigmoidal dose-response curves are used to calculate the half maximal inhibitory concentration (IC50) with GraphPad Prism 4® software.

C=CC(=O)N1CCN(c2ncnc3c(F)c(-c4ccc(F)c5sc(N)nc45)c(Cl)cc23)CC1 [Example 1, 1-{4-[7-(2-Amino-7-fluoro-1,3-benzothiazol-4-yl)-6-chloro-8-fluoroquinazolin-4-yl]piperazin-1-yl}prop-2-en-1-one]
IC50 (H358): 0.0419 µM | IC50 (A549; read-out: IC50 (μM) in 2 D cell proliferation): 17.7 µM | IC50 (A549; read-out: IC50 (μM) in 3 D spheroid cell proliferation): 5.94 µM | IC50 (μM) in 2 D cell proliferation (A549): little activity | IC50 (μM) in 3 D spheroid cell proliferation (A549): little activity
